Tested on: A172
Test: WST-1 proliferation assay, A172
Type: cell-based, human
Protocol: AP-121 was prepared as 5 mM stock solution in distilled sterile water, Temozolomide (TMZ) (Haorui Pharma-Chem, Inc., Edison, N.J.) was prepared as 100 mM in sterile filtrated DMSO; Adriamycin (ADR) (Sigma) was prepared as 1 mM in distilled sterile water; Camptothecin (CTP) (Sigma) was prepared as 10 mM solution in 0.1 N NaOH; Tarceva (Proteinkinase, Germany) was prepared as 5 mM solution in sterile DMSO. All compound stocks were kept at −20° C. 2000 cells were plated in each well of 96-well flat bottom plates, and incubated overnight at 37 °C in 5% CO2. The growth of plated cells was measured by adding […] of WST-1 reagent (Roche Applied Sciences, Germany) to 3 control wells and measuring the absorbance at 650 nm and at 450 nm, respectively, with a SpectraMax250 plate reader. […] After this incubation, VVST-1 reagent was added to the wells and OD650-OD450 values were calculated as before. six wells were assayed for each conditions and standard deviation was determined: all experiments were performed at least three times independently. […] Six different concentrations of each drug were used in combinations index measurements and compared to +/− cells, and compared to controls without compound.

CCCCCCCCCCCCCCCCCCOCC(COP(=O)([O-])OCC[N+](C)(C)C)OC (racemic) [AP-121, 1-O-octadecyl-2-O-methyl-glycero-3-phosphocholine]
IC50 (Homo sapiens, A 172): 4.6 µM | EC50 (Homo sapiens, A 172, single agent or compound mixture as labelled (arrays A2, A1), read-out: ED50 (the source's name)): 4.2 µM | normalized ED50 (arrays B2, B1) (ratio to the largest value): 0.62

From patent US8324188B2, “Combinations of ET-18-O-CH3and anti-cancer agents for the treatment of cancer” (priority 2006, dated 2012)
